Data reported in PubChem BioAssay (NCI).
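The compound was tested at five concentrations on cells cultured in 96-well plates, with a 48-hour exposure period. TGI: total growth inhibition.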

What was measured:
Assay in all cases: growth of human tumour cells (NCI), 48 h
MOLT-4 leukemia = test system: MOLT-4 leukemia
OVCAR-8 ovarian = test system: OVCAR-8 ovarian
SR leukemia = test system: SR leukemia
OVCAR-4 ovarian = test system: OVCAR-4 ovarian
K-562 leukemia = test system: K-562 leukemia
OVCAR-5 ovarian = test system: OVCAR-5 ovarian
SK-MEL-2 melanoma = test system: SK-MEL-2 melanoma
U251 CNS = test system: U251 CNS
A549 NSCLC = test system: A549 NSCLC
XF 498 CNS = test system: XF 498 CNS
NCI-H460 lung = test system: NCI-H460 lung
HL-60(TB) leukemia = test system: HL-60(TB) leukemia
MALME-3M melanoma = test system: MALME-3M melanoma
M14 melanoma = test system: M14 melanoma
ACHN renal = test system: ACHN renal
HCT-15 colon = test system: HCT-15 colon
LOX IMVI melanoma = test system: LOX IMVI melanoma
TK-10 renal = test system: TK-10 renal
HOP-92 NSCLC = test system: HOP-92 NSCLC
SF-268 CNS = test system: SF-268 CNS
HCC-2998 colon = test system: HCC-2998 colon
UACC-257 melanoma = test system: UACC-257 melanoma
SF-295 CNS = test system: SF-295 CNS
NCI-H23 lung = test system: NCI-H23 lung
NCI-H226 lung = test system: NCI-H226 lung
KM20L2 colon = test system: KM20L2 colon
SW-620 colon = test system: SW-620 colon
HOP-62 NSCLC = test system: HOP-62 NSCLC
SNB-19 CNS = test system: SNB-19 CNS
RPMI-8226 leukemia = test system: RPMI-8226 leukemia
SF-539 CNS = test system: SF-539 CNS
DMS 273 small cell lung = test system: DMS 273 small cell lung
SK-MEL-5 melanoma = test system: SK-MEL-5 melanoma
NCI-H522 lung = test system: NCI-H522 lung
HT29 colon = test system: HT29 colon
EKVX NSCLC = test system: EKVX NSCLC
A498 renal = test system: A498 renal
DMS 114 small cell lung = test system: DMS 114 small cell lung
KM12 colon = test system: KM12 colon
COLO 205 colon = test system: COLO 205 colon
M19-MEL melanoma = test system: M19-MEL melanoma
HCT-116 colon = test system: HCT-116 colon
HOP-18 NSCLC = test system: HOP-18 NSCLC
SNB-75 CNS = test system: SNB-75 CNS
LXFL 529 NSCLC = test system: LXFL 529 NSCLC
IGROV1 ovarian = test system: IGROV1 ovarian
SK-OV-3 ovarian = test system: SK-OV-3 ovarian
SK-MEL-28 melanoma = test system: SK-MEL-28 melanoma
786-0 renal = test system: 786-0 renal
SNB-78 CNS = test system: SNB-78 CNS
DLD-1 colon = test system: DLD-1 colon
SN12C renal = test system: SN12C renal
CCRF-CEM leukemia = test system: CCRF-CEM leukemia
CAKI-1 renal = test system: CAKI-1 renal
OVCAR-3 ovarian = test system: OVCAR-3 ovarian
UACC-62 melanoma = test system: UACC-62 melanoma
UO-31 renal = test system: UO-31 renal
RXF 393 renal = test system: RXF 393 renal

Measured: TGI

CC1(C)O[C@@H](CC/C=C/CO)[C@H](CC/C=C/CO)O1
> 100 µM: MOLT-4 leukemia | OVCAR-8 ovarian | SR leukemia | OVCAR-4 ovarian | K-562 leukemia | OVCAR-5 ovarian | SK-MEL-2 melanoma | U251 CNS | A549 NSCLC | XF 498 CNS | NCI-H460 lung | HL-60(TB) leukemia | MALME-3M melanoma | M14 melanoma | ACHN renal | HCT-15 colon | LOX IMVI melanoma | TK-10 renal | HOP-92 NSCLC | SF-268 CNS | HCC-2998 colon | UACC-257 melanoma | SF-295 CNS | NCI-H23 lung | NCI-H226 lung | KM20L2 colon | SW-620 colon | HOP-62 NSCLC | SNB-19 CNS | RPMI-8226 leukemia | SF-539 CNS | DMS 273 small cell lung | SK-MEL-5 melanoma | NCI-H522 lung | HT29 colon | EKVX NSCLC | A498 renal | DMS 114 small cell lung | KM12 colon | COLO 205 colon | M19-MEL melanoma | HCT-116 colon | HOP-18 NSCLC | SNB-75 CNS | LXFL 529 NSCLC | IGROV1 ovarian | SK-OV-3 ovarian | SK-MEL-28 melanoma | 786-0 renal | SNB-78 CNS | DLD-1 colon | SN12C renal | CCRF-CEM leukemia | CAKI-1 renal | OVCAR-3 ovarian

O=C1C(Cl)C(c2cc(Br)ccc2O)N1n1cnc2ccccc2c1=O (stereo not drawn)
39.1 µM: NCI-H226 lung
> 94.3 µM: CAKI-1 renal
> 82.1 µM: OVCAR-3 ovarian
> 78.2 µM: SK-MEL-28 melanoma
> 93.9 µM: SNB-78 CNS
> 73.2 µM: DMS 273 small cell lung
16.4 µM: HL-60(TB) leukemia
> 71 µM: NCI-H23 lung
43.7 µM: RPMI-8226 leukemia
70.1 µM: MALME-3M melanoma
> 100 µM: OVCAR-8 ovarian | OVCAR-5 ovarian | SK-MEL-2 melanoma | U251 CNS | A549 NSCLC | XF 498 CNS | HCT-15 colon | LOX IMVI melanoma | TK-10 renal | SF-295 CNS | KM20L2 colon | SW-620 colon | HOP-62 NSCLC | SF-539 CNS | HT29 colon | A498 renal | KM12 colon | COLO 205 colon | LXFL 529 NSCLC | SK-OV-3 ovarian | RXF 393 renal | 786-0 renal | DLD-1 colon | SN12C renal | CCRF-CEM leukemia
49.1 µM: UACC-257 melanoma
> 55 µM: SF-268 CNS
28.2 µM: DMS 114 small cell lung
> 68 µM: UACC-62 melanoma
60.5 µM: NCI-H460 lung
> 86.8 µM: SK-MEL-5 melanoma
35.1 µM: M19-MEL melanoma
71.1 µM: HOP-92 NSCLC
> 47.3 µM: K-562 leukemia
33.3 µM: HCT-116 colon
> 36.9 µM: SR leukemia
27.8 µM: EKVX NSCLC
71.4 µM: SNB-75 CNS
> 95.2 µM: ACHN renal
65.9 µM: HCC-2998 colon
> 82.7 µM: OVCAR-4 ovarian
> 62.9 µM: SNB-19 CNS
> 56.3 µM: UO-31 renal
> 51.5 µM: NCI-H522 lung
> 92.7 µM: IGROV1 ovarian
27.6 µM: M14 melanoma
45.5 µM: HOP-18 NSCLC
29 µM: MOLT-4 leukemia

O=C1c2c(c(-c3ccccc3)c(-c3ccccc3)c(-c3ccccc3)c2-c2ccccc2)C(=O)N1c1cccc(Br)c1
> 100 µM: MOLT-4 leukemia | OVCAR-8 ovarian | SR leukemia | UACC-62 melanoma | OVCAR-4 ovarian | K-562 leukemia | OVCAR-5 ovarian | SK-MEL-2 melanoma | U251 CNS | A549 NSCLC | XF 498 CNS | NCI-H460 lung | HL-60(TB) leukemia | MALME-3M melanoma | M14 melanoma | HCT-15 colon | LOX IMVI melanoma | TK-10 renal | HOP-92 NSCLC | SF-268 CNS | HCC-2998 colon | UACC-257 melanoma | SF-295 CNS | NCI-H23 lung | NCI-H226 lung | KM20L2 colon | SW-620 colon | HOP-62 NSCLC | SNB-19 CNS | RPMI-8226 leukemia | SF-539 CNS | DMS 273 small cell lung | UO-31 renal | SK-MEL-5 melanoma | NCI-H522 lung | EKVX NSCLC | A498 renal | DMS 114 small cell lung | KM12 colon | COLO 205 colon | M19-MEL melanoma | HCT-116 colon | HOP-18 NSCLC | SNB-75 CNS | LXFL 529 NSCLC | IGROV1 ovarian | SK-OV-3 ovarian | RXF 393 renal | 786-0 renal | SNB-78 CNS | DLD-1 colon | SN12C renal | CCRF-CEM leukemia | CAKI-1 renal | OVCAR-3 ovarian
